Values of other authors in patent US20120015968A1, “USE OF PYRIMIDYLAMINOBENZAMIDE DERIVATIVES FOR THE TREATMENT OF DISORDERS MEDIATED BY THE LEUCINE ZIPPER-AND STERILE ALPHA MOTIF-CONTAINING KINASE (ZAK)” (NOVARTIS AG, priority 2009, published 2012).
pIC50: −log10 of the molar value.

Molecular target: ZAK (Homo sapiens, UniProt Q9NYL2)
Settings: biotinylated myelin basic protein as substrate; U. Rix et al, Leukemia (2010) 24, 44-50, p. 48; read-out: IC50 of inhibition of ZAK activity

ZAK, sequence (Q9NYL2 whole entry): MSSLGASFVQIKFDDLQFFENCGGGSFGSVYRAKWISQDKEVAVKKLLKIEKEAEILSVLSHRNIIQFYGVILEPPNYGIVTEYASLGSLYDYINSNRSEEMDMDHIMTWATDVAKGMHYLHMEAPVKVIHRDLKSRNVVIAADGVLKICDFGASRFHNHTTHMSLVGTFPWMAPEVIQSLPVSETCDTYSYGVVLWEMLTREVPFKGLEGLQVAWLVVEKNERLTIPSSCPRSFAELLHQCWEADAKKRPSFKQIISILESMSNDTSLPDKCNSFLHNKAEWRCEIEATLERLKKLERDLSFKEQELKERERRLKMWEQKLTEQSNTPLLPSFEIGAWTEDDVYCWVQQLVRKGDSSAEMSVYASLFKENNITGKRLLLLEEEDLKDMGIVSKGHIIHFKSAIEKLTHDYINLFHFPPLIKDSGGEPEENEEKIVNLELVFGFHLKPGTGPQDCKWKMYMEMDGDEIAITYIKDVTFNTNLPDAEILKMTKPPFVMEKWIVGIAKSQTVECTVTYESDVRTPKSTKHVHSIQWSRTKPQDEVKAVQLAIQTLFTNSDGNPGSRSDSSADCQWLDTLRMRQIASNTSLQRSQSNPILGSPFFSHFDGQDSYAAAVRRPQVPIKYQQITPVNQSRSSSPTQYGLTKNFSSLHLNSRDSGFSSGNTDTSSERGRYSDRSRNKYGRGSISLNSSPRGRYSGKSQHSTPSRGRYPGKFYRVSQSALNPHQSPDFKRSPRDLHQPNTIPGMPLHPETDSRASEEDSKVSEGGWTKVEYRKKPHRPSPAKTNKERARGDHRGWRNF

pIC50: 7.14
Compound: Cc1ccc(NC(=O)c2ccc(CN3CC[C@H](N(C)C)C3)c(C(F)(F)F)c2)cc1Nc1nccc(-c2cncnc2)n1 [INNO-406]
